{
  "source": "patent US12655104B2",
  "about": "“Anticancer compounds selective for ER-positive cancers” (THE BOARD OF TRUSTEES OF THE UNIVERSITY OF ILLINOIS, priority 2020, dated 2026)",
  "key": {"[1]": {"test_system": "anticipatory unfolded protein response (a-UPR)", "assay": "a-UPR immunoblotting/western blot in MCF-7 cells", "assay_type": "cell-based", "description": "a-UPR Immunoblotting/Western Blot Procedure. 400,000 MCF-7 cells/per well were seeded into 6 or 12 well plates and allowed to adhere overnight. Media was then aspirated from each well and then fresh media with diluted test compound (0.1% DMSO concentration) was added accordingly. Cells were incubated for 4 or 6 hours, then harvested. PBS-washed cell pellets were then lysed using RIPA buffer containing phosphatase (BioVision) and protease inhibitor cocktail (Calbiochem). Protein concentrations were determined using the BCA assay (Pierce). Lysates containing 10-15 μg of protein were loaded onto 4-20% gradient gels (BioRad), and SDS-PAGE was run. Proteins were then transferred onto membrane (PDVF Millipore) and blots blocked with BSA solution (2 g in 40 mL TBST) for one hour. After blocking, primary antibody was added and incubated overnight (using manufacturer's recommended dilutions). Following overnight incubation, blots were washed with TBST (5-minute incubation for each wash, washed 3 times), then incubated with HRP-linked secondary antibody for 1 hour in TBST. Blots were washed (10-minute incubation for each wash for a total of two ten-minute washes). SuperSignal West Pico Solution was then added following manufacturer's procedures and blots imaged with ChemiDoc.\nAntibodies. […]"}, "T47D-ERαD538G (TDG)": {"test_system": "T47D-ERαD538G (TDG)", "assay": "Alamar blue fluorescence viability (IC50), TDG", "assay_type": "cell-based", "conditions": "24 h, read-out: IC50 24 hr (μM)", "description": "Cancer Cell Lines: Culturing Conditions and Validation. All cell lines were cultured at 37° C. with 5% CO2. All ERα-positive cell lines were grown in media lacking phenol red. MCF-7 were grown in EMEM with 10% FBS and 1% penicillin-streptomycin (P/S). T47D were cultured in MEM with 10% FBS and 1% P/S. TYS and TDG cells were grown in MEM supplemented with 10% CD-FBS and 1% P/S. HCT-116 and MDA-MB-231 cells were cultured in RPMI-1640 supplemented with 10% FBS and 1% P/S. MDA-MB-436 cells were cultured in DMEM supplemented with 10% FBS and 1% P/S. HT-29 were cultured in McCoy's media supplemented with 10% FBS and 1% P/S. All cell lines were used directly from ATCC stocks and/or have been further authenticated using PowerPlex16HS Assay (Promega) as described previously.^54 In short, >1 million cells were harvested and lysed using the cell lysis buffer (50 mM Tris, 50 mM EDTA, 25 mM sucrose, 100 mM NaCl, 1% SDS, pH 8). […]\nAlamar Blue Fluorescence for Anticancer Activity (IC50). […] After 2-6 hours incubation, each well's fluorescence (λexcit.=555 nm, λemission.=585 nm) was measured using a SpectraMax M3 plate reader (Molecular Devices). Percent dead was determined by comparison to a 100% dead control: 100 μM raptinal treated cells. Dose dependent curves and IC50 were calculated using Origin Pro V10."}, "MCF-7 tumors": {"test_system": "MCF-7 tumors", "assay": "MCF-7 orthotopic tumor model", "assay_type": "in vivo, mice", "description": "MCF-7 Orthotopic Tumor Model. Nu/J ovariectomized mice (Jackson's lab) were supplemented with a 60-day E2 pellet (0.36 mg, Innovative Research of America) 2-3 days prior to tumor cell inoculation. MCF-7 cells (5×10^6, in 1:1 HBSS:matrigel) were inoculated into the mammary fat pad and allowed to establish and tumors grown to ˜300-400 mm^3 (˜21-28 days to establish). […] Tumor size was measured by caliper, and mouse weights were recorded."}, "[2]": {"assay": "Maximum tolerated dose (MTD) in mice", "assay_type": "in vivo", "conditions": "female, CD-1, in vivo, Mouse, single dose, read-out: MTD", "excerpt": "(§1) Maximum Tolerated Dose (MTD) Experiments in Mice and Rats. […] Rodents were monitored for signs of distress, lethargy, neurotoxicity, and so forth for multiple days after compound administration. […] The MTD was defined as the maximum dose in which any acute side effects observed were tolerated and no lethality observed."}, "CD-1 mice": {"test_system": "CD-1 mice", "assay": "Maximum tolerated dose (MTD) in mice", "assay_type": "in vivo", "excerpt": "as §1"}, "MDA-MB-231": {"test_system": "MDA-MB-231", "assay": "Alamar blue fluorescence viability (IC50), MDA-MB-231", "assay_type": "cell-based", "conditions": "for IC50: Homo sapiens", "description": "(§2) Cancer Cell Lines: Culturing Conditions and Validation. All cell lines were cultured at 37° C. with 5% CO2. All ERα-positive cell lines were grown in media lacking phenol red. MCF-7 were grown in EMEM with 10% FBS and 1% penicillin-streptomycin (P/S). T47D were cultured in MEM with 10% FBS and 1% P/S. TYS and TDG cells were grown in MEM supplemented with 10% CD-FBS and 1% P/S. HCT-116 and MDA-MB-231 cells were cultured in RPMI-1640 supplemented with 10% FBS and 1% P/S. MDA-MB-436 cells were cultured in DMEM supplemented with 10% FBS and 1% P/S. HT-29 were cultured in McCoy's media supplemented with 10% FBS and 1% P/S. All cell lines were used directly from ATCC stocks and/or have been further authenticated using PowerPlex16HS Assay (Promega) as described previously.^54 In short, >1 million cells were harvested and lysed using the cell lysis buffer (50 mM Tris, 50 mM EDTA, 25 mM sucrose, 100 mM NaCl, 1% SDS, pH 8). DNA extraction and short tandem repeats (STRs) profiling for each cell line were carried out at the University of Arizona Genetics Core (UAGC). Autosomal STR profiles were compared to reference databases such as ATCC, DSMZ, and JCRB.\n(§3) Alamar Blue Fluorescence for Anticancer Activity (IC50). 2,000-15,000 cells per well were seeded a 96-well plate. Cells were allowed to adhere before DMSO stock solutions of test compounds were added to each well with a final concentration of DMSO in each well=1%; final volume: 100 μL. At the end of the desired incubation time (e.g., 24 or 72 hours), media in each well was aspirated and new fresh media (no compound, 100 μL) was added. Alamar blue solution (4 mg resazurin per 40 mL PBS) was then added (10 μL). After 2-6 hours incubation, each well's fluorescence (λexcit.=555 nm, λemission.=585 nm) was measured using a SpectraMax M3 plate reader (Molecular Devices). Percent dead was determined by comparison to a 100% dead control: 100 μM raptinal treated cells. Dose dependent curves and IC50 were calculated using Origin Pro V10."}, "[3]": {"assay": "Maximum tolerated dose (MTD) in rats", "assay_type": "in vivo", "conditions": "Sprague Dawley, in vivo, iv; Rat, I.V., single dose; read-out: MTD", "excerpt": "as §1"}, "[4]": {"test_system": "CD Sprague Dawley IGS rats", "assay": "Maximum tolerated dose (MTD) in rats", "assay_type": "in vivo", "conditions": "Rat, I.V.", "excerpt": "as §1"}, "ERα− cancer cell lines": {"test_system": "ERα− cancer cell lines", "assay": "Selectivity of cell killing, ERα+ versus ERα− cancer cell lines", "assay_type": "cell-based", "description": "as §2, §3"}},
  "note": "Where two headings read alike, the source gives them in different places.",
  "data": [
    {"smiles": "O=C1Nc2c(C(F)(F)F)cccc2[C@@]1(c1ccc(O)cc1)N1CCC(F)(F)CC1", "note": "(single isomer, unassigned) [ErSO-DFP]", "values": [
      {"measurement": "a-UPR activation (P-AMPK, P-EIF2α, cleavage of ATF6α p90), western blot", "setting": "[1]", "result": "activates the a-UPR in a time- and concentration-dependent manner"},
      {"measurement": "IC50", "setting": "T47D-ERαD538G (TDG)", "result": "0.009 ± 0.001", "unit": "µM"},
      {"measurement": "mouse weight change during MCF-7 study", "setting": "MCF-7 tumors; I.V. 5 mg/kg once-a-week, three total doses", "result": "no significant weight change"},
      {"measurement": "antitumor effect on MCF-7 tumors", "setting": "MCF-7 tumors; I.V. 5 mg/kg once-a-week, three total doses, tumors >300 mm^3", "result": "profound regression of MCF-7 tumors"},
      {"measurement": "increase in therapeutic index (TI) relative to ErSO", "setting": "MCF-7 tumors; from efficacy data and head-to-head MTD studies", "result": "≥ 5", "unit": "fold"},
      {"measurement": "MTD", "setting": "[2]; iv, I.V.", "result": 95, "unit": "mg/kg"},
      {"measurement": "MTD", "setting": "[2]; po, P.O.", "result": "> 200", "unit": "mg/kg"},
      {"measurement": "Fold Increase Rel. to ErSO (MTD)", "setting": "CD-1 mice; Mouse, I.V.", "result": 4.8},
      {"measurement": "fold increase in tolerability relative to ErSO", "setting": "CD-1 mice; both mice and rats, administered intravenously", "result": "~5", "unit": "fold"},
      {"measurement": "Fold Change", "setting": "MDA-MB-231; Average Fold Change between 24/72 hr IC50 values for MCF-7 and MDA-MB-231", "result": 1882},
      {"measurement": "IC50", "setting": "MDA-MB-231; MDA-MB-231, 24 h, read-out: IC50 24 hr (μM)", "result": "55 ± 5", "unit": "µM"},
      {"measurement": "IC50", "setting": "MDA-MB-231; MDA-MB-231, 72 h, read-out: IC50 72 hr (μM)", "result": "32 ± 4", "unit": "µM"},
      {"measurement": "MTD", "setting": "[3]", "result": "> 50", "unit": "mg/kg"},
      {"measurement": "Fold Increase Rel. to ErSO (MTD)", "setting": "[4]", "result": "3.3-5"},
      {"measurement": "MTD", "setting": "[4]; single dose", "result": ">50", "unit": "mg/kg"},
      {"measurement": "average fold difference between IC50 values of ERα+ and ERα− cancer cell lines", "setting": "ERα− cancer cell lines; measured at both 24 and 72 hours", "result": "> 2750", "unit": "fold"},
      {"measurement": "IC50", "setting": "ERα− cancer cell lines; read-out: IC50 in ERα− cell lines", "result": "> 25", "unit": "µM"}
    ]}
  ]
}
